Reference: patent US11542262B2, “Phosphatidylinositol 3-kinase inhibitors” (NANJING ZHENGXIANG PHARMACEUTICALS CO., LTD., priority 2019, dated 2023)
≈ marks a conversion by molar mass, not a printed value.

Legend:
PI3K gamma = molecular target: T1, PI3K gamma (Mus musculus, UniProt Q9JHG7); assay: Raw264.7 cell assay: phosphorylation of AKT in C5a stimulated RAW264.7 cells (AlphaLISA); format: cell-based; conditions: pAKT, read-out: PI3K gamma Raw264.7 cell (nM) cellular activity (IC50)
T1 construct: endogenous in cells; host or cells: RAW264.7
Procedure: (§1) This study aims to determine the inhibitory effect of compounds on PI3K gamma and PI3K delta in corresponding cell based assays. PI3K gamma activity was reflected by phosphorylation of AKT in C5a stimulated RAW264.7 cells, and PI3K delta activity was reflected by phosphorylation of AKT in anti-IgM stimulated Raji cells. Phosphorylation of AKT in cells was determined using AlphaLISA technology from PerkinElmer.
Raw264.7 cell assay: Prepare Passage 15 Raw264.7 cell and add 6 μL of 30K cells per well in 384-well plate by multidrop. Centrifuge at 500 RPM for 30 s and incubate for 2 hours at 37° C., 5% CO2. Add 30 nL compound by echo and incubate for 30 min at 37° C., 5% CO2. […] Add 2 μL of 5× lysis buffer by multidrop, incubate for 10 min on a plate shaker. Add 5 μL acceptor mix provided in the kit, centrifuge at 1000 RPM for 1 min. Add 5 μL donor mix provided in the kit, centrifuge at 1000 RPM for 1 min and incubate in dark for 2 hours at 25° C. Read AlphaLISA signal on Envision.
Y=Bottom+(Top−Bottom)/(1+10^((Log IC50−X)*Hill Slope)) X: Log of cpd concentration Y: Inhibition

PI3Kγ = PI3Kγ (Homo sapiens, UniProt P48736); assay: ADP-Glo luminescent assay, enzymatic activity of PI3K gamma; format: biochemical; conditions: ATP 25 μM; read-out: PI3K gamma (nM) inhibitory activity (IC50)
Procedure: The compounds would be tested from 1 or 10 μM, 3-fold dilution for 10 doses, in duplicate.
(§2) Compound preparation: Dilute a compound to 100× of the final desired highest inhibitor concentration in reaction by 100% DMSO. Transfer 100 μl of this compound dilution to a well in a 96-well plate and serially dilute it with DMSO for a total of 10 concentrations.
Kinase reaction: Prepare a solution of PI3K in 1× kinase buffer at 2-fold the final concentration of each reagent in the assay. Control wells contain 1× kinase buffer without enzyme. Prepare substrate solution of PIP2 substrate and ATP in 1× kinase reaction buffer at 2-fold of the final concentration. Add concentration substrate solution to each well to the final concentration. Cover the assay plate, shake to mix, and incubate at room temperature for 1 hour. Add 5 μl of ADP-Glo reagent to each well to stop the reaction. […] Add 10 ul Kinase Detection Reagent to each well, shake 1 min, equilibrate for 30 min before reading on a luminescence plate reader.
(§3) Data Analysis: Convert RLU values to percent inhibition values as Percent inhibition=(max−sample RLU)/(max−min)*100. “min”—no enzyme control; “max”—DMSO control. Fit the data in XLFit excel add-in version 5.4.0.8 to obtain IC50 values. Y=Bottom+(Top−Bottom)/(1+(IC50/X)^HillSlope).

PI3Kδ = PI3Kδ (Homo sapiens, UniProt O00329); assay: ADP-Glo luminescent assay, enzymatic activity of PI3K delta; format: biochemical; conditions: ATP 25 μM; read-out: PI3K delta (nM) inhibitory activity (IC50)
Procedure: Enzymatic activity of PI3K isoforms: Enzymatic activity of the class I PI3K isoforms in the presence of the compounds of Table 1 was measured using ADP-Glo luminescent assay against PI3Kα, PI3Kβ, PI3Kδ and PI3Kγ with ATP concentration at 25 μM. […] The compounds would be tested from 1 or 10 μM, 3-fold dilution for 10 doses, in duplicate.
as §2
(§4) Kinase reaction: Prepare a solution of PI3K in 1× kinase buffer at 2-fold the final concentration of each reagent in the assay. Control wells contain 1× kinase buffer without enzyme. Prepare substrate solution of PIP2 substrate and ATP in 1× kinase reaction buffer at 2-fold of the final concentration. Add concentration substrate solution to each well to the final concentration. Cover the assay plate, shake to mix, and incubate at room temperature for 1 hour. Add 5 μl of ADP-Glo reagent to each well to stop the reaction. Mix briefly with a quick spin, shake slowly on the shaker for 120 min. Add 10 ul Kinase Detection Reagent to each well, shake 1 min, equilibrate for 30 min before reading on a luminescence plate reader.
as §3

[1] = Kinetic solubility test in PBS pH7.4; format: physicochemical; conditions: aqueous buffer, kinetic from dmso stock; PBS pH 7.4, 25° C., 2 hours
Procedure: 15 μL of stock solution (10 mM) was placed in order into their proper 96-well rack. 485 μL of PBS pH7.4 was added into each vial of the cap-less Solubility Sample plate. The assay was performed in singlet. Add one stir stick to each vial and seal using a molded PTFE/Silicone plug. […] After completion of the 2 hours, the samples from the Solubility Sample plate were transferred into the filter plate. all the samples were filtered using the Vacuum Manifold. Aliquot of 5 μL was taken from the filtrate followed by addition of 495 μL of a mixture of H2O and acetonitrile containing internal standard (1:1). A certain proportion of ultrapure water was used to dilute the diluent according to the peak shape. The dilution factor was changed according to the solubility values and the LC-MS signal response.
Preparation of 3 μM standards (STD): From the 10 mM DMSO STD plate, 6 μL was transferred into the remaining empty plate, and then 194 μL of DMSO was added to that plate to have a STD concentration of 300 μM. From the 300 μM DMSO STD plate, 5 μL was transferred into the remaining empty plate, and then 495 μL of a mixture of H2O and acetonitrile containing internal standard (1:1) was added to that plate to have a final STD concentration of 3 μM. A certain proportion of ultrapure water was used to dilute the diluent according to the peak shape. The concentrations of the standard samples were changed according to the LC-MS signal response.
Procedure for sample analysis: The plate was placed into the well plate autosampler. The samples were evaluated by LC-MS/MS analysis.
Data analysis: All calculations were carried out using Microsoft Excel.
The filtrate was analyzed and quantified against a standard of known concentration using LC coupled with mass spectral peak identification and quantitation. Solubility values of the test compound and control compound were calculated as follows:
[formula] • Any value of the compounds that was not within the specified limits was rejected and the experiment was repeated.

PI3K delta = molecular target: T2, PI3K delta (Homo sapiens, UniProt O00329); assay: Raji cell assay: phosphorylation of AKT in anti-IgM stimulated Raji cells (AlphaLISA); format: cell-based; conditions: pAKT, read-out: PI3K delta Raji cell (nM) cellular activity (IC50)
T2 construct: endogenous in cells; host or cells: Raji
Procedure: as §1
Raji cell assay: Prepare Passage 11 Raji cell and add 6 μL of 60K cells per well in 384-well plate. Centrifuge at 500 RPM for 30 s and incubate for 2 hours at 37° C., 5% CO2. Add 30 nL compound by Echo and incubate for 30 min at 37° C. Add 2 μL of IgM (4×, 12 μg/mL) per well, centrifuge at 500 RPM for 30 s and incubate for 10 min at 37° C. Add 2 μL of 5× lysis buffer by Multidrop. Shake 10 min on a plate shaker. Add 5 μL acceptor mix provided in the kit. Centrifuge at 1000 RPM for 1 min. Add 5 μL donor mix provided in the kit. Centrifuge at 1000 RPM for 1 min. Then incubate for 2 hours at 25° C., keep the plate in dark. Read AlphaLISA signal on Envision.
Data analysis: Fit the cpd IC50 from non-linear regression equation. Y=Bottom+(Top−Bottom)/(1+10^((Log IC50−X)*Hill Slope)) X: Log of cpd concentration Y: Inhibition

PI3Kβ = PI3Kβ (Homo sapiens, UniProt P42338); assay: ADP-Glo luminescent assay, enzymatic activity of PI3K beta; format: biochemical; conditions: ATP 25 μM; read-out: PI3K beta (nM) inhibitory activity (IC50)
Procedure: (§5) Enzymatic activity of PI3K isoforms: Enzymatic activity of the class I PI3K isoforms in the presence of the compounds of Table 1 was measured using ADP-Glo luminescent assay against PI3Kα, PI3Kβ, PI3Kδ and PI3Kγ with ATP concentration at 25 μM. IPI-549 was used as the reference compound. The compounds would be tested from 1 or 10 μM, 3-fold dilution for 10 doses, in duplicate.
as §2, §4, §3

PI3Kα = PI3Kα (Homo sapiens, UniProt P42336); assay: ADP-Glo luminescent assay, enzymatic activity of PI3K alpha; format: biochemical; conditions: ATP 25 μM; read-out: PI3K alpha (nM) inhibitory activity (IC50)
Procedure: as §5, §2, §4, §3

T1 sequence (Q9JHG7 whole entry): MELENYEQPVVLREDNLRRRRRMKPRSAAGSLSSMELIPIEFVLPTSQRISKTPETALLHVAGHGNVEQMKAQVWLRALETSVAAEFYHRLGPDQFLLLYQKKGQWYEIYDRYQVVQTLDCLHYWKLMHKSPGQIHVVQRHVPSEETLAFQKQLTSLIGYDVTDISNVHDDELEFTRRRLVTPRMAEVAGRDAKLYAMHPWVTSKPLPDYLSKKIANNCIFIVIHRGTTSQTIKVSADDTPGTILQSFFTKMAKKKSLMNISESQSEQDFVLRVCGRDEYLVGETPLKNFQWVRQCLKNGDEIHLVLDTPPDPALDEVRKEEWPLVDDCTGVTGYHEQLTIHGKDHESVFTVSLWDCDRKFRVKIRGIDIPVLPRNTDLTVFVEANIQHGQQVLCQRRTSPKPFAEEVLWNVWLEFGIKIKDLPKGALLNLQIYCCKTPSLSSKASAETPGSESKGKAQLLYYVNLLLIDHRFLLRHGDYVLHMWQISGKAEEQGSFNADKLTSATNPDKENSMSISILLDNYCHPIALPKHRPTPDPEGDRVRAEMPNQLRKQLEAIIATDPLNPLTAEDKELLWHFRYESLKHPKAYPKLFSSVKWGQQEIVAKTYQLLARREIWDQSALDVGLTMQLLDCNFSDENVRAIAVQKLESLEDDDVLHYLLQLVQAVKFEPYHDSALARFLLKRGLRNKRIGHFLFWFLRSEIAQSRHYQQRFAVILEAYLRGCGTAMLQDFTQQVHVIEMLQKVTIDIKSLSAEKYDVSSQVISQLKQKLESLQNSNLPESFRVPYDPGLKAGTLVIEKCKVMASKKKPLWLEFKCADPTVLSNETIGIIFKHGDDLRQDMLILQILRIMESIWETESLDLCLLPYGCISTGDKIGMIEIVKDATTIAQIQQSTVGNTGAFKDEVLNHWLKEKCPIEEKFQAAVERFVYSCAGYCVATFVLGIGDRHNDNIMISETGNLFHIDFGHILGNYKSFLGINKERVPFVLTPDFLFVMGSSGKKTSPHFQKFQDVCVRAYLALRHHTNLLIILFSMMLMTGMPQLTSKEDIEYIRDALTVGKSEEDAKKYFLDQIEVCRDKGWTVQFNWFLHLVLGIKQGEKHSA
T1 sequence (Q5SW28 whole entry partner): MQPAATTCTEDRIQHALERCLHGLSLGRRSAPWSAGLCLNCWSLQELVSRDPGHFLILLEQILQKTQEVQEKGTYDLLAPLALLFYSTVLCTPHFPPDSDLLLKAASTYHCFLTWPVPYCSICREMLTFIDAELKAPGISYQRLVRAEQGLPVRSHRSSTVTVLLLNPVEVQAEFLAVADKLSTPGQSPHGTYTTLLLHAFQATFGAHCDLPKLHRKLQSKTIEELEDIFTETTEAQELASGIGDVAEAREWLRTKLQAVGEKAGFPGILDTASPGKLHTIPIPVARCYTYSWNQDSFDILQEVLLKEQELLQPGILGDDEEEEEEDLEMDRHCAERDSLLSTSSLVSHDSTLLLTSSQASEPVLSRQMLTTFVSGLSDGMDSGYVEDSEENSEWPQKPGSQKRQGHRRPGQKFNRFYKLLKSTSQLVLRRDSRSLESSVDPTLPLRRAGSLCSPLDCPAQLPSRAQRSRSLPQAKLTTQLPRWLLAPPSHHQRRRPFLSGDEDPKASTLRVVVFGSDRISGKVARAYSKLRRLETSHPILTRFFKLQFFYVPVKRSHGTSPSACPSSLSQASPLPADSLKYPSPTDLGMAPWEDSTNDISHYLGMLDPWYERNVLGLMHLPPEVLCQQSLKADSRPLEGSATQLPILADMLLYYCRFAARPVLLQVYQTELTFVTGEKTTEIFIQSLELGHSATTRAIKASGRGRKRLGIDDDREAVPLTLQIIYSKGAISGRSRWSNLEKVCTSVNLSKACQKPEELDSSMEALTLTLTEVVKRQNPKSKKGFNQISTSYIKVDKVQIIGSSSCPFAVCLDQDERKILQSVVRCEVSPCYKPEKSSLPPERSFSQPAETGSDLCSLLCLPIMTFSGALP
PI3Kδ, sequence (O00329 whole entry, species assumed, canonical isoform): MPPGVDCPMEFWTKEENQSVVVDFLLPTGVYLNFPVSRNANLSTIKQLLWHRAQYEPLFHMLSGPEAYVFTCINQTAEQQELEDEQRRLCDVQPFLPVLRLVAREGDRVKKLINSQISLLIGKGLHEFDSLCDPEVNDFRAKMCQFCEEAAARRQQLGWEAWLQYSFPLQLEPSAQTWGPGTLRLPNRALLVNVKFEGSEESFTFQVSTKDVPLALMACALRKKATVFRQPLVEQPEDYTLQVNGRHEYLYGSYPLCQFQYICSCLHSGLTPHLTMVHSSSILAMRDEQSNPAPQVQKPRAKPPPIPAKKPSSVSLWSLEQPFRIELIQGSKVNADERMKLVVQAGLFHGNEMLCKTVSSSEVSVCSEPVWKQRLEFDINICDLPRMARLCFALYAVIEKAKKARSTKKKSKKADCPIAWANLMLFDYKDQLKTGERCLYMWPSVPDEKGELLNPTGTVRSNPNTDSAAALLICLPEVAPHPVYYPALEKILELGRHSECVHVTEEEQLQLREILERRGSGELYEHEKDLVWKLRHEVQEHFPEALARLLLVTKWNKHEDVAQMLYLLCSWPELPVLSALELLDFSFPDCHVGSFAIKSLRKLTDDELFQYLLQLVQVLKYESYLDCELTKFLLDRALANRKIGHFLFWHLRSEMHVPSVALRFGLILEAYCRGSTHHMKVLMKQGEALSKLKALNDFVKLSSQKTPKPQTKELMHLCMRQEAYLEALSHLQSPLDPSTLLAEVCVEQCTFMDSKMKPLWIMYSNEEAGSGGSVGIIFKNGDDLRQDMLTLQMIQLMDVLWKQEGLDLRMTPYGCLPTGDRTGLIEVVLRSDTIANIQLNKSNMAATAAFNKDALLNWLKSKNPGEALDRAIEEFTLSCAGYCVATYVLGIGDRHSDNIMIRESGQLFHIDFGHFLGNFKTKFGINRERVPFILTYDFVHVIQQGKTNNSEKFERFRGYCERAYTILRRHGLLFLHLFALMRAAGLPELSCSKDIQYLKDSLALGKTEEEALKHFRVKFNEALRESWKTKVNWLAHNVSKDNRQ
PI3Kδ, sequence (P27986 whole entry partner, species assumed, canonical isoform): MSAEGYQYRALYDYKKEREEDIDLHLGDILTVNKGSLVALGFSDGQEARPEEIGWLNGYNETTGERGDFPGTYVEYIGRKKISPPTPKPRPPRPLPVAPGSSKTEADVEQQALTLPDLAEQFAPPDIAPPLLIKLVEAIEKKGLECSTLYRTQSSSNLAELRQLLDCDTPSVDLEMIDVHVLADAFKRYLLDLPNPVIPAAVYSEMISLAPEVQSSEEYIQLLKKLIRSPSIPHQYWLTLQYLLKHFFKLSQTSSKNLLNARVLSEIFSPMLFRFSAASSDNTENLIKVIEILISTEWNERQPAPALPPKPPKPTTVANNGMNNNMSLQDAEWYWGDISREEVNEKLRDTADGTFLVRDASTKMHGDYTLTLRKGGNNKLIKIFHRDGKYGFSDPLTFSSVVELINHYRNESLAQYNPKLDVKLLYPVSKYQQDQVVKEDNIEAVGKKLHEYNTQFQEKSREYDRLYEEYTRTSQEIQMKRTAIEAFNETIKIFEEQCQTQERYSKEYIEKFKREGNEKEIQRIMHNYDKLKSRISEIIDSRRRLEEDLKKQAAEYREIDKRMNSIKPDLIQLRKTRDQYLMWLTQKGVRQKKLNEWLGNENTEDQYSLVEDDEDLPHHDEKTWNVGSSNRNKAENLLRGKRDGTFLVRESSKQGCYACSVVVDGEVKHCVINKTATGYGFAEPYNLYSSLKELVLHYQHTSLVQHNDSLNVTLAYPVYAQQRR
T2 sequence (O00329 whole entry): as the sequence (O00329 whole entry, species assumed, canonical isoform) above
T2 sequence (P27986 whole entry partner): as the sequence (P27986 whole entry partner, species assumed, canonical isoform) above
PI3Kγ, sequence (P48736 whole entry, species assumed): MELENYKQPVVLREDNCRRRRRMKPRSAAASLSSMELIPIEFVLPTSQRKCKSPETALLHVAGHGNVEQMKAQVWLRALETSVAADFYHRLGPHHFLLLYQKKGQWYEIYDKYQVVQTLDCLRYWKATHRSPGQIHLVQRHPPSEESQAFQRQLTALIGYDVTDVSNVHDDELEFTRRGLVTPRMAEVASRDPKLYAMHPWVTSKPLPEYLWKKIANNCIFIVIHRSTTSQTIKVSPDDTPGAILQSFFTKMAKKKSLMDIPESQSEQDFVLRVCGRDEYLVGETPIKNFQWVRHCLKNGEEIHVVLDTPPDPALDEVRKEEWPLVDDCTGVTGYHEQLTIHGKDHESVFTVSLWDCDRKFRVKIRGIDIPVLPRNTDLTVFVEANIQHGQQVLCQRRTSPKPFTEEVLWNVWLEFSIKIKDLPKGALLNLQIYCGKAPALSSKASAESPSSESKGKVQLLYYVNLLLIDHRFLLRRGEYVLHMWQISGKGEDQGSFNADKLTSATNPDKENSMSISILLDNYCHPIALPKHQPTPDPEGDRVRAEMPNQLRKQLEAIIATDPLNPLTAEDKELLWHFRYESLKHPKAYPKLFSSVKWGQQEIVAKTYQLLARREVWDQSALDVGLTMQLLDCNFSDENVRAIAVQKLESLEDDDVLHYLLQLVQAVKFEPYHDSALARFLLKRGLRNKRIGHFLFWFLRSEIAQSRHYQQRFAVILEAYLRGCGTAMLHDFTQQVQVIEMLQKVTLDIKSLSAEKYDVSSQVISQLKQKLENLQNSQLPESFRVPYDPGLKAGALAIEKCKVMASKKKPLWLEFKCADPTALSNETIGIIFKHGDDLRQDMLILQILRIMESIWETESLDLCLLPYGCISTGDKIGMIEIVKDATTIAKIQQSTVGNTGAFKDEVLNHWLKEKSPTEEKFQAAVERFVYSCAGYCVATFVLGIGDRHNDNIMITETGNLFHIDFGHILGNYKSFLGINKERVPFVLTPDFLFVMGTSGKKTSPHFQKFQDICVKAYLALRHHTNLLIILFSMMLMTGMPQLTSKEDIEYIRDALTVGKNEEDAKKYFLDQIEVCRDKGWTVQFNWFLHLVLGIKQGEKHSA

## CC(=O)Nc1nc(C)c(-c2cc3c(c([S@@+](C)[O-])c2)C(=O)N([C@@H](C)C2CC2)C3)s1 (racemic) [Compound 12, N-(5-(2-((S)-1-cyclopropylethyl)-7-(methylsulfinyl)-1-oxoisoindolin-5-yl)-4-methylthiazol-2-yl)acetamide]
PI3K gamma
  IC50: 30 nM
PI3Kγ
  IC50: 1.7 nM
PI3Kδ
  IC50: 2080 nM
[1]
  solubility at 2 h: 211 µM (≈ 88.1 µg/mL)

## CC(=O)Nc1nc(C)c(-c2cc3c(c([S@](C)(=N)=O)c2)C(=O)N([C@@H](C)C2CC2)C3)s1 (racemic) [Compound 15, N-(5-(2-((S)-1-cyclopropylethyl)-7-(S-methylsulfonimidoyl)-1-oxoisoindolin-5-yl)-4-methylthiazol-2-yl)acetamide]
PI3K gamma
  IC50: 130 nM
PI3Kγ
  IC50: 1.9 nM
PI3Kδ
  IC50: 784 nM
[1]
  solubility at 2 h: 245 µM (≈ 106 µg/mL)

## CC(=O)Nc1nc(C)c(-c2cc3c(c(N4CCOCC4)n2)C(=O)N(C(C)C(F)(F)F)C3)s1 (stereo in doubt) [Compound 36, (R)-N-(4-methyl-5-(4-morpholino-3-oxo-2-(1,1,1-trifluoropropan-2-yl)-2,3-dihydro-1H-pyrrolo[3,4-c]pyridin-6-yl)thiazol-2-yl)acetamide]
PI3K gamma
  IC50: 3.3 nM
PI3Kγ
  IC50: 2.4 nM
PI3Kδ
  IC50: 1250 nM
[1]
  solubility at 2 h: 32 µM (≈ 15 µg/mL)

## CC(=O)Nc1nc(C)c(-c2cc3c(c(P(C)(C)=O)c2)C(=O)N([C@@H](C)C2CC2)C3)s1 [Compound 1, (S)-N-(5-(2-(1-cyclopropylethyl)-7-(dimethylphosphoryl)-1-oxoisoindolin-5-yl)-4-methylthiazol-2-yl)acetamide]
PI3K gamma
  IC50: 315 nM
PI3Kγ
  IC50: 1.4 nM
PI3K delta
  IC50: > 1000 nM
PI3Kδ
  IC50: > 1000 nM

## CC(=O)Nc1nc(C)c(-c2cc3c(c(S(C)(=O)=O)n2)C(=O)N([C@@H](C)C2CC2)C3)s1 [Compound 19, (S)-N-(5-(2-(1-cyclopropylethyl)-4-(methylsulfonyl)-3-oxo-2,3-dihydro-1H-pyrrolo[3,4-c]pyridin-6-yl)-4-methylthiazol-2-yl)acetamide]
PI3K gamma
  IC50: 28 nM
PI3Kγ
  IC50: 1.6 nM
PI3Kδ
  IC50: > 1000 nM

## COc1nc(-c2sc(NC(C)=O)nc2C)cc2c1C(=O)N([C@@H](C)C1CC1)C2 [Compound 22, (S)-N-(5-(2-(1-cyclopropylethyl)-4-methoxy-3-oxo-2,3-dihydro-1H-pyrrolo[3,4-c]pyridin-6-yl)-4-methylthiazol-2-yl)acetamide]
PI3K gamma
  IC50: 2.5 nM
PI3Kγ
  IC50: 1.7 nM
PI3K delta
  IC50: 2280 nM
PI3Kδ
  IC50: > 1000 nM
[1]
  solubility at 2 h: 3.5 µM (≈ 1.35 µg/mL)

## CC(=O)Nc1nc(C)c(-c2cc3c(c(NS(=O)(=O)C4CC4)n2)C(=O)N([C@@H](C)C2CC2)C3)s1 [Compound 24, (S)-N-(5-(4-(cyclopropanesulfonamido)-2-(1-cyclopropylethyl)-3-oxo-2,3-dihydro-1H-pyrrolo[3,4-c]pyridin-6-yl)-4-methylthiazol-2-yl)acetamide]
PI3K gamma
  IC50: 2.2 nM
PI3Kγ
  IC50: 1.5 nM
PI3K delta
  IC50: 1420 nM
PI3Kδ
  IC50: 794 nM
[1]
  solubility at 2 h: 83 µM (≈ 39.5 µg/mL)

## CC(=O)Nc1nc(C)c(-c2cc3c(c(N4CCOCC4)n2)C(=O)N([C@H](C)C2CC2)C3)s1 [Compound 35, (R)-N-(5-(2-(1-cyclopropylethyl)-4-morpholino-3-oxo-2,3-dihydro-1H-pyrrolo[3,4-c]pyridin-6-yl)-4-methylthiazol-2-yl)acetamide]
PI3Kβ
  IC50: > 10000 nM
PI3K gamma
  IC50: 3.2 nM
PI3Kα
  IC50: 4140 nM
PI3Kδ
  IC50: 1330 nM
[1]
  solubility at 2 h: 23 µM (≈ 10.2 µg/mL)

## CC(=O)Nc1nc(C)c(-c2cc3c(c(N4CCS(=O)(=O)CC4)n2)C(=O)N([C@@H](C)C2CC2)C3)s1 [Compound 38, (S)-N-(5-(2-(1-cyclopropylethyl)-4-(1,1-dioxidothiomorpholino)-3-oxo-2,3-dihydro-M-pyrrolo[3,4-c]pyridin-6-yl)-4-methylthiazol-2-yl)acetamide]
PI3Kβ
  IC50: > 10000 nM
PI3K gamma
  IC50: 9.3 nM
PI3Kγ
  IC50: 1.9 nM
PI3Kα
  IC50: 8420 nM
PI3Kδ
  IC50: 1550 nM
[1]
  solubility at 2 h: 2.3 µM (≈ 1.13 µg/mL)

## CC(=O)Nc1nc(C)c(-c2cc3c(c(NC(C)=O)n2)C(=O)N([C@@H](C)C2CC2)C3)s1 [Compound 44, (S)-N-(5-(4-acetamido-2-(1-cyclopropylethyl)-3-oxo-2,3-dihydro-M-pyrrolo[3,4-c]pyridin-6-yl)-4-methylthiazol-2-yl)acetamide]
PI3K gamma
  IC50: 5.1 nM
PI3Kγ
  IC50: 0.87 nM
PI3Kδ
  IC50: > 1000 nM
[1]
  solubility at 2 h: 1.2 µM (≈ 0.496 µg/mL)
